Target: T1, OATP1B3 (Homo sapiens, UniProt Q9NPD5)
T1 construct: expressed in transfected cells; host or cells: HEK293
T1 sequence (Q9NPD5 1-702): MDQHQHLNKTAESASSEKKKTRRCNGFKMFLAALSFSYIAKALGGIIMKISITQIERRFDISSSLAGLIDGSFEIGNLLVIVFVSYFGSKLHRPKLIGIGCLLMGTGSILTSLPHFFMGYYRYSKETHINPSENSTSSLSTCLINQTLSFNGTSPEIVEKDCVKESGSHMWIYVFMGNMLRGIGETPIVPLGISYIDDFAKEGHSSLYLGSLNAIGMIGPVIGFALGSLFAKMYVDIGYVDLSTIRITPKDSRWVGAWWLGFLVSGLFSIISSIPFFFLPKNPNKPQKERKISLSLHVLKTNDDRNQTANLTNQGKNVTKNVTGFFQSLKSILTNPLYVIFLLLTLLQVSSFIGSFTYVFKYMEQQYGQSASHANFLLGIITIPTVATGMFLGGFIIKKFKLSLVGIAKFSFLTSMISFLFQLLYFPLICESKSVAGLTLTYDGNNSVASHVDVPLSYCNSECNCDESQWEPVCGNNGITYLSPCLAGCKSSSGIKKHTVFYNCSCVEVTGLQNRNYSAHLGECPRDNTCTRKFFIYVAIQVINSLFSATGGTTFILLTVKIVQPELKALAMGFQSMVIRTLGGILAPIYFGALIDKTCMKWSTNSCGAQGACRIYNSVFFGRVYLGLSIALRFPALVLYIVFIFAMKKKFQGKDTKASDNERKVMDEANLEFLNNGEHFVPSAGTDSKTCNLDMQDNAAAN
Assay: OATP1B3 transporter substrate uptake in OATP1B3-HEK293 cells
Type: in vitro ADME
Settings: test concentration 1 μM
Method: Protocol for identification of compounds that are substrates of transporters OATP1B1 and OATP1B3. Transfected HTEK293 and vector control HTEK293 cells were cultured in 24-well poly-D-lysine or collagen-coated tissue culture plates ([…]) for 2 and 10 minutes respectively in transport buffer (HIBSSg, pH 7.4, pre-warmed to 37° C.). At a defined time point, the uptake experiments were stopped by removing dosing solution followed by two washes of ice-cold HIBSSg buffer. The cells were lysed for 2 minutes with […] containing an appropriate internal standard (when available). Lysis buffer were chilled to −20° C., and the plate was kept on ice during lysis. The cell lysate was transferred into a 96-well plate for sample analysis with LC-MS/MS analysis to determine concentration of test compound in cell lysate. The uptake of test compounds was normalized by total cell protein using the BCA Protein Assay Kit following the manufacturer's protocol. The inhibitor Rifamycin SV was used to block OATP1B1 and OATP1B3 transporter activity in order to determine uptake ratios.

SMILES: COc1cc2c(cc1OCCCCCCC(=O)O)C[C@@H](C(C)C)n1cc(C(=O)O)c(=O)cc1-2 [Example 6, (S)-9-((6-carboxyhexyl)oxy)-6-isopropyl-10-methoxy-2-oxo-6,7-dihydro-2H-pyrido[2,1-a]isoquinoline-3-carboxylic acid]
- Uptake Ratio (−/+Inhibitor) (OATP1B3-HEK293 cells, inhibitor Rifamycin SV): 11.57
- Uptake Ratio (Transporter(−Inhibitor)/Mock(−Inhibitor)) (OATP1B3-HEK293 vs Mock): 24.80

Source: US20250296929A1, “NOVEL HEPATOSELECTIVE POLYADENYLATING POLYMERASES INHIBITORS AND THEIR METHOD OF USE” (BARUCH S. BLUMBERG INSTITUTE, priority 2021, published 2025)
